The values that follow come from ChEMBL document CHEMBL4422621, “Novel chalcone and flavone derivatives as selective and dual inhibitors of the transport proteins ABCB1 and ABCG2” (Eur J Med Chem, 2019).

Broadly, the IC50 is the concentration at which inhibition is half-maximal. By inhibition is commonly meant the share of the control response that was lost under treatment. By GI50 is commonly meant the concentration at which growth is held to half of that of the control. Lower therefore signals more potent growth inhibition.

For data set [1], the target named is T1, ATP-dependent translocase ABCB1 (Homo sapiens, UniProt P08183). Kind of data set: Inhibition of ABCB1 in human A2780/ADR cells at 5 to 10 uM preincubated for 30 mins followed by calcein AM addition and measured every 60 secs for 1 hr by fluorescence assay. The data set is classed as cell-based.
T1 sequence (P08183 whole entry): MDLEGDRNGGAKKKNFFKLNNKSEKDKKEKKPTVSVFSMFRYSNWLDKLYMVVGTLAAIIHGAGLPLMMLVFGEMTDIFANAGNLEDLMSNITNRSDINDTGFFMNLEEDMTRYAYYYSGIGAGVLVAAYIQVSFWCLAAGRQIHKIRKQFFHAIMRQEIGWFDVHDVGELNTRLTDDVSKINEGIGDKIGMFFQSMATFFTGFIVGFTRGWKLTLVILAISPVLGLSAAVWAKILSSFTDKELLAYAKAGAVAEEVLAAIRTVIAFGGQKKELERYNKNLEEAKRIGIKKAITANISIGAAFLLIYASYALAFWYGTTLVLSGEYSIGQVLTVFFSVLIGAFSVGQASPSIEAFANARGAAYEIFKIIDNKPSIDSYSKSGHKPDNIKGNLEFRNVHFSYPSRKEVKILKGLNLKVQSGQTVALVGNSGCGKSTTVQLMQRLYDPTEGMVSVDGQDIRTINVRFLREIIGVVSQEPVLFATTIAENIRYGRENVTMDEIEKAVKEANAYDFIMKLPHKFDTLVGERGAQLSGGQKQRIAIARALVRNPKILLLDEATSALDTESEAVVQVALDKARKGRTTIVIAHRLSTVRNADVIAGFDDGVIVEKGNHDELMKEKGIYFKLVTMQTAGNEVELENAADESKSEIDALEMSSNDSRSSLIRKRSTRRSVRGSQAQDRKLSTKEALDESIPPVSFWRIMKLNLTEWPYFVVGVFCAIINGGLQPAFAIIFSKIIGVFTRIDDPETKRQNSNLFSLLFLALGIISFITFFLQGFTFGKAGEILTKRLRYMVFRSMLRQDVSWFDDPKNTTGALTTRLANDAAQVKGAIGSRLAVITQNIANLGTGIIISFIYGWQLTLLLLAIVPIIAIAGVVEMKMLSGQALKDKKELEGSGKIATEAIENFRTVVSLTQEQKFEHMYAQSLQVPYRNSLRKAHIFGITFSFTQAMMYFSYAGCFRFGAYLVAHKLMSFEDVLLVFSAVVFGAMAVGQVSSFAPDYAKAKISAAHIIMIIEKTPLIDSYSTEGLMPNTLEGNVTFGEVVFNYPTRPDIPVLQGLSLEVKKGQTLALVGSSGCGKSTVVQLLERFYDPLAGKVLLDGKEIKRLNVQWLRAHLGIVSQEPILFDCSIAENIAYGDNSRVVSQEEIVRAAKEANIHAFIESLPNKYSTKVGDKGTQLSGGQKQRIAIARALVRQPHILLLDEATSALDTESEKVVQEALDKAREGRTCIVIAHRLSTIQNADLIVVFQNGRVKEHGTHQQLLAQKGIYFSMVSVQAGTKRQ
Data set [2] deals with T2, Multidrug resistance-associated protein 1 (Homo sapiens, UniProt P33527). Put plainly: Inhibition of ABCC1 in human […] cells at 5 to 10 uM preincubated for 30 mins followed by calcein AM addition and measured every 60 secs for 1 hr by fluorescence assay. The data set is classed as cell-based.
T2 sequence (P33527 whole entry): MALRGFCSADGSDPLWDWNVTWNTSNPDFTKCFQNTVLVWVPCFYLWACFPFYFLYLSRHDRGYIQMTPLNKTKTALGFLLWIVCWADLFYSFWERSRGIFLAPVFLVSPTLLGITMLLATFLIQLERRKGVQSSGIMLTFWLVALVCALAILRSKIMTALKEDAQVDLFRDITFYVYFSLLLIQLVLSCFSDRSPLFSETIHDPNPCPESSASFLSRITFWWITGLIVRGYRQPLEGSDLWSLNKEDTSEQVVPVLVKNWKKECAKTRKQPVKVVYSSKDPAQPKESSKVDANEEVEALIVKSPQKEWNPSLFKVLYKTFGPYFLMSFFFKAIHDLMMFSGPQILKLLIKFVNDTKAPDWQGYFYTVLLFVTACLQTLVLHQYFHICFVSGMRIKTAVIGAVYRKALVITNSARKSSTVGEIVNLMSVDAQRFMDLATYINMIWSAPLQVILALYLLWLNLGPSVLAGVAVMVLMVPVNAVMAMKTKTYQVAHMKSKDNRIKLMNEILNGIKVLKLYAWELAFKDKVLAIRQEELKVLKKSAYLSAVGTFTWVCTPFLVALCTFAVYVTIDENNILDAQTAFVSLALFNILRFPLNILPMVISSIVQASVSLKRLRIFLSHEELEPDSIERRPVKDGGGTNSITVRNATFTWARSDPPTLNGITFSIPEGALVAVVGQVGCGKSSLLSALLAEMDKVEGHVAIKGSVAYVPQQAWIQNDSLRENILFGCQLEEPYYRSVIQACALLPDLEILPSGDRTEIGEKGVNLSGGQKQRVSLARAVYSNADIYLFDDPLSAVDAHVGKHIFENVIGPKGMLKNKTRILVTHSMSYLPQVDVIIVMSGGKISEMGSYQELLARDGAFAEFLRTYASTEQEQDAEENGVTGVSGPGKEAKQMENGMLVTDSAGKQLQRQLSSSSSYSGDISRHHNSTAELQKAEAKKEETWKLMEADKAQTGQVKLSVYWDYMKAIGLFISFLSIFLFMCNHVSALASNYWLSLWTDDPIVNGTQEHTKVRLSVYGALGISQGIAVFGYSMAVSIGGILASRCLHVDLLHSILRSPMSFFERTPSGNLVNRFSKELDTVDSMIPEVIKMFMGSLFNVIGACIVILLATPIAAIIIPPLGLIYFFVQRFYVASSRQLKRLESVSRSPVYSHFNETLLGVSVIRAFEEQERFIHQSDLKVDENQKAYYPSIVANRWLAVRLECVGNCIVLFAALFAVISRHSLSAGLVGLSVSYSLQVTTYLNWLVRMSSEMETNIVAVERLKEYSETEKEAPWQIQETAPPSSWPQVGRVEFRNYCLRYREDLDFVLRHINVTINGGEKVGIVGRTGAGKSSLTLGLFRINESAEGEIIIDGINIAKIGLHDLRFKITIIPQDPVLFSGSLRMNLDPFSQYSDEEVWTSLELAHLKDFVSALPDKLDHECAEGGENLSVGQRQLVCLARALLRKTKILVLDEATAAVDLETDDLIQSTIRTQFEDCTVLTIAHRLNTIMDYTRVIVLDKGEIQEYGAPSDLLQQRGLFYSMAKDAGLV
Data set [3] has as its target T3, Broad substrate specificity ATP-binding cassette transporter ABCG2 (Homo sapiens, UniProt Q9UNQ0).
T3 sequence (Q9UNQ0 whole entry): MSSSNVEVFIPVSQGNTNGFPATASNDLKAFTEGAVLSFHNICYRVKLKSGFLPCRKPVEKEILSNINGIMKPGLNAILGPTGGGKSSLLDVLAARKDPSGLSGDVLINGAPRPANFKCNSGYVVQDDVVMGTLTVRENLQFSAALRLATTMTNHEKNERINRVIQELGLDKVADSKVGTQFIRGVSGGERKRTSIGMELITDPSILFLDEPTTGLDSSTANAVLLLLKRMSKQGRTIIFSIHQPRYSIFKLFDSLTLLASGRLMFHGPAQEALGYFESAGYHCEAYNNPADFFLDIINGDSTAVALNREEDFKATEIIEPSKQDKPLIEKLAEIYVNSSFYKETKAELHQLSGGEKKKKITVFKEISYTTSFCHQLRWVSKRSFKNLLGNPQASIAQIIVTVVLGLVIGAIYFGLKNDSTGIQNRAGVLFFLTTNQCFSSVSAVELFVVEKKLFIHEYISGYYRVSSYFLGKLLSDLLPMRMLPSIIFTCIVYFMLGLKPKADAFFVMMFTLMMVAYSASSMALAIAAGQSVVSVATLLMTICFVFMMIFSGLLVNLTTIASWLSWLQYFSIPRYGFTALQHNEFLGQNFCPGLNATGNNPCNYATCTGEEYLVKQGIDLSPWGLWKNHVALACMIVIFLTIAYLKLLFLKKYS
Put plainly: (§1) Inhibition of ABCG2 (unknown origin) expressed in MDCK II BCRP cells assessed as effect on heophorbide A accumulation at 5 to 10 uM after 120 mins by flow cytometric analysis relative to control. The data set is classed as cell-based. The following applies: 2 h.

The target of data set [4] is T3, Broad substrate specificity ATP-binding cassette transporter ABCG2. Kind of data set: Inhibition of ABCG2 (unknown origin) expressed in MDCK II BCRP cells assessed as effect on pheophorbide A accumulation after 120 mins by flow cytometric analysis. The data set is classed as cell-based.
Data set [5] addresses T4, ABCG2 (BCRP) (Homo sapiens, UniProt Q9UNQ0).
T4 sequence (Q9UNQ0 whole entry): T3 sequence (Q9UNQ0 whole entry)
The data set is described as §1. Particulars: MDCK II BCRP cells expressing ABCG2, probe pheophorbide A. The data set is classed as cell-based.

The target of data set [6] is T1, ATP-dependent translocase ABCB1. Kind of data set: (§2) Inhibition of ABCB1 in human A2780/ADR cells preincubated for 30 mins followed by calcein AM addition and measured every 60 secs for 1 hr by fluorescence assay. The class given is cell-based.
A short description of data set [7]: Growth inhibition of MDCK2 cells after 72 hrs by MTT assay. The class given is cell-based, Canis lupus familiaris, MDCK-II. Particulars: dog; call rule not given here. For orientation: Tetrazolium assays rely on reduction of a dye to a coloured formazan, in cell work by metabolically active cells.
Data set [8] in a line: Growth inhibition of MDCK2 cells expressing BCRP (unknown origin) after 72 hrs by MTT assay. The class given is ADME, cell-based, Canis lupus familiaris, MDCK-II. The following applies: dog.
Data set [9] deals with ABCG2 (BCRP). Kind of data set: Therapeutic index, ratio of GI50 for MDCK2 cells expressing BCRP (unknown origin) to EC50 for ABCG2 (unknown origin) co-expressed in MDCK2 cells expressing BCRP (unknown origin). Particulars: dog. The class given is toxicity, cell-based.
A short description of data set [10]: Growth inhibition of human A2780 cells after 72 hrs by MTT assay. The class given is cell-based.
The nature of data set [11]: Growth inhibition of human A2780/ADR cells after 72 hrs by MTT assay. The class given is cell-based.
The test system of data set [12] is ABCB1 (P-gp). Put plainly: Therapeutic index, ratio of GI50 for human A2780/ADR cells to EC50 for ABCB1 in human A2780/ADR cells. The class given is toxicity, cell-based.
For data set [13], the target named is T2, Multidrug resistance-associated protein 1. Kind of data set: Inhibition of ABCC1 in human […] cells preincubated for 30 mins followed by calcein AM addition and measured every 60 secs for 1 hr by fluorescence assay. The data set is classed as cell-based.
Data set [14] has as its target ABCB1 (P-gp) (Homo sapiens, UniProt P08183). The description is as §2. The data set is classed as cell-based. Particulars: human, A2780/ADR cells, probe calcein AM; read-out: Imax.

Chain of ABCB1 (P-gp) (Homo sapiens, UniProt P08183) (P08183 whole entry): as the sequence (P08183 whole entry) above

On to `O=C(/C=C/c1ccc(OCc2ccc(Cl)cc2Cl)cc1)c1ccc(O)cc1`, for which the “inhibition (INH)” value in [1], in data set [2] and in data set [3] was “Not Active” in each case.
`COc1cc(/C=C/C(=O)c2cccc(OCC(=O)Nc3ccc4c(c3)COC4=O)c2)cc(OC)c1OC`: the half-maximal inhibitory concentration (IC50) was 9.93 µM in data set [4] and 11.7 µM in data set [6]. Also, the inhibition at 2 h in [5] was at least 25%.
Regarding `COc1ccc(NC(=O)COc2ccc(C(=O)/C=C/c3c(F)cccc3F)cc2)cc1OC`, the IC50 in [4] stood at 6.11 µM. In [5], the inhibition at 2 h was at least 25%. The GI50 at 72 h in data set [7] was 36.2 µM; in data set [8] it was 36.6 µM. Further, the selectivity ratio in [9] turned out to be 6.
Consider `O=C(COc1c(-c2ccccc2Cl)oc2ccccc2c1=O)Nc1ccc2c(c1)COC2=O`, for which the values for the IC50 in data set [4] and in data set [6] were 2.9 µM and 5.01 µM, respectively. The inhibition at 2 h in data set [5] is at least 25%. Also, the GI50 at 72 h in data set [10] worked out at 61.1 µM; in data set [11], 69.2 µM; in [7], 67.6 µM; in [8], 56.3 µM. The selectivity ratio came out at 13.8 in data set [12] and 19.4 in data set [9].
As for `COc1ccc(NC(=O)COc2ccc(C(=O)/C=C/c3cc(OC)c(OC)c(OC)c3)cc2)cc1OC`, the IC50 in data set [4] was 3.37 µM; in [13], 12.5 µM. Moreover, the inhibition at 2 h in data set [5] is at least 25%. The GI50 at 72 h in [7] amounted to 18.9 µM; in [8], 27.7 µM. Besides, the selectivity ratio in data set [9] is 8.2.
With `COc1ccc(-c2c(OCC(=O)Nc3cccc4ccccc34)oc3ccccc3c2=O)cc1OC`, the concentration for half-maximal inhibition (IC50) in [4] was 3.75 µM; in data set [6], 5.43 µM. The inhibition at 2 h in [5] was at least 25%. The GI50 at 72 h was 43.6 µM in data set [10], 45.3 µM in data set [11], over 100 µM in data set [7] and over 100 µM in [8]. For the same molecule, the values for the selectivity ratio in [12] and in [9] were 8.3 and over 26.7, respectively.
Take `COc1cc(C(=O)/C=C/c2cc(OC)c(OC)c(OC)c2)ccc1O`: the “inhibition (INH)” value in [1] and in data set [2] was “Not Active” throughout. In [4], the IC50 was 1.97 µM. Moreover, in data set [5], the inhibition at 2 h was at least 25%. For the same molecule, the GI50 at 72 h in [7] was found to be 7.56 µM; in data set [8], 9.38 µM. The selectivity ratio in data set [9] was 4.8.
On to `COc1cc(/C=C/C(=O)c2ccc(OCC(=O)NCc3ccc4c(c3)OCO4)cc2)cc(OC)c1OC`, for which the half-inhibitory concentration (IC50) in data set [4] stood at 6.89 µM. Further, the inhibition at 2 h in data set [5] is at least 25%. In addition, the GI50 at 72 h in [7] stood at 61.5 µM; in data set [8] it was 63.5 µM. Also, the selectivity ratio in data set [9] amounted to 9.2.
As for `O=C(COc1cccc(C(=O)/C=C/c2ccccc2)c1)Nc1ccc2c(c1)COC2=O`, the IC50 in data set [4] was determined as 6.08 µM. In [5], the inhibition at 2 h is at least 25%. Also, the concentration for 50% growth inhibition (GI50) at 72 h in data set [7] was 11.5 µM; in [8] it was 16.6 µM. In addition, in data set [9], the selectivity ratio was 2.7.
As to `Cc1ccc(-c2c(OCC(=O)Nc3cccc4ccccc34)oc3ccccc3c2=O)cc1`, the “inhibition (INH)” value in data set [3] was “Not Active”. In data set [6], the half-maximal inhibitory concentration (IC50) was 1.89 µM. Also, the GI50 at 72 h in data set [10] was 68.7 µM; in [11], 98.6 µM. For the same molecule, in data set [12], the selectivity ratio was 52.2.
Take `COc1ccc(-c2c(OCC(=O)Nc3cccc4ccccc34)oc3ccccc3c2=O)cc1`: the concentration for half-maximal inhibition (IC50) in [4] was 5.09 µM; in [6], 1.41 µM. Also, the inhibition at 2 h in data set [5] was at least 25%. Also, in data set [14], the Emax at 1 h is 51%. The GI50 at 72 h in data set [7] and in [8] was over 100 µM throughout. Also, the selectivity ratio in [9] was over 19.6.
On to `COc1cccc(/C=C/C(=O)c2ccc(OCC(=O)Nc3ccc(OC)c(OC)c3)cc2)c1`, for which the 50% inhibitory concentration (IC50) in data set [4] was found to be 3.58 µM. Besides, the inhibition at 2 h in data set [5] is at least 25%. Besides, the GI50 at 72 h is 33.2 µM in [7] and 36.7 µM in data set [8]. The selectivity ratio in data set [9] turned out to be 10.3.
On to `CCCOc1ccc(/C=C/C(=O)c2ccc(O)cc2)cc1`, for which the “inhibition (INH)” value in [1] and in [2] was “Not Active” in each case. Also, the half-maximal inhibitory concentration (IC50) in [4] came out at 4.74 µM. In data set [5], the inhibition at 2 h was at least 25%. Further, the figures for the GI50 at 72 h in data set [7] and in data set [8] were 31.1 µM and 28.5 µM, respectively. Besides, in data set [9], the selectivity ratio is 6.
Take `O=C(/C=C/c1ccco1)c1ccc(O)cc1`: the “inhibition (INH)” value in data set [1], in data set [2] and in [3] was “Not Active” throughout.
With `O=C(/C=C/c1ccccc1C(F)(F)F)c1ccc(O)cc1`, the “inhibition (INH)” value in [1] and in [2] was “Not Active” each time. Besides, in data set [4], the 50% inhibitory concentration (IC50) was determined as 4.91 µM. In data set [5], the inhibition at 2 h was at least 25%.
